Read-outs that look alike come from different tables or passages of the source.
Key:
CFTR [1] = biological target: T1, CFTR (Homo sapiens, UniProt P13569); experiment: Membrane Potential Dye, Enteroid Assay B; format: cell-based; details: Enteroid Assay B; for EC50: read-out: Ent. B EC50
Method in brief: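 Enteroid cells loaded 25 min at room temperature with 20 μM methyl oxonol plus 30 μM CaCCinh-A01 and 30 μM Chicago Sky Blue, then switched to chloride-free gluconate buffer. Chloride transport was started by chloride-free stimulation solution, with fluorescence read for 15 min.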

CFTR [2] = biological target: T1, CFTR; experiment: Membrane Potential Dye, Enteroid Assay A; format: cell-based; details: for EC50: read-out: Ent. A EC50
Method in brief: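 Enteroid cells were loaded with methyl oxonol membrane potential dye (plus CaCCinh-A01 and Chicago Sky Blue) for 25 min at room temperature. Chloride transport was started by switching to chloride-free gluconate stimulation solution, with fluorescence read for 15 min. Activity was expressed as % of a triple-combination CFTR modulator control (3 μM, 3 μM, 300 nM acute).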

F508del = biological target: T2, F508del (Homo sapiens, UniProt P13569, DEL508-508); experiment: 3T3 assay: membrane potential optical assay for F508del correction in NIH 3T3 cells; format: cell-based
T2 construct: expressed in transfected cells
T2 sequence (P13569 with tags, fused parts or gaps DEL508-508): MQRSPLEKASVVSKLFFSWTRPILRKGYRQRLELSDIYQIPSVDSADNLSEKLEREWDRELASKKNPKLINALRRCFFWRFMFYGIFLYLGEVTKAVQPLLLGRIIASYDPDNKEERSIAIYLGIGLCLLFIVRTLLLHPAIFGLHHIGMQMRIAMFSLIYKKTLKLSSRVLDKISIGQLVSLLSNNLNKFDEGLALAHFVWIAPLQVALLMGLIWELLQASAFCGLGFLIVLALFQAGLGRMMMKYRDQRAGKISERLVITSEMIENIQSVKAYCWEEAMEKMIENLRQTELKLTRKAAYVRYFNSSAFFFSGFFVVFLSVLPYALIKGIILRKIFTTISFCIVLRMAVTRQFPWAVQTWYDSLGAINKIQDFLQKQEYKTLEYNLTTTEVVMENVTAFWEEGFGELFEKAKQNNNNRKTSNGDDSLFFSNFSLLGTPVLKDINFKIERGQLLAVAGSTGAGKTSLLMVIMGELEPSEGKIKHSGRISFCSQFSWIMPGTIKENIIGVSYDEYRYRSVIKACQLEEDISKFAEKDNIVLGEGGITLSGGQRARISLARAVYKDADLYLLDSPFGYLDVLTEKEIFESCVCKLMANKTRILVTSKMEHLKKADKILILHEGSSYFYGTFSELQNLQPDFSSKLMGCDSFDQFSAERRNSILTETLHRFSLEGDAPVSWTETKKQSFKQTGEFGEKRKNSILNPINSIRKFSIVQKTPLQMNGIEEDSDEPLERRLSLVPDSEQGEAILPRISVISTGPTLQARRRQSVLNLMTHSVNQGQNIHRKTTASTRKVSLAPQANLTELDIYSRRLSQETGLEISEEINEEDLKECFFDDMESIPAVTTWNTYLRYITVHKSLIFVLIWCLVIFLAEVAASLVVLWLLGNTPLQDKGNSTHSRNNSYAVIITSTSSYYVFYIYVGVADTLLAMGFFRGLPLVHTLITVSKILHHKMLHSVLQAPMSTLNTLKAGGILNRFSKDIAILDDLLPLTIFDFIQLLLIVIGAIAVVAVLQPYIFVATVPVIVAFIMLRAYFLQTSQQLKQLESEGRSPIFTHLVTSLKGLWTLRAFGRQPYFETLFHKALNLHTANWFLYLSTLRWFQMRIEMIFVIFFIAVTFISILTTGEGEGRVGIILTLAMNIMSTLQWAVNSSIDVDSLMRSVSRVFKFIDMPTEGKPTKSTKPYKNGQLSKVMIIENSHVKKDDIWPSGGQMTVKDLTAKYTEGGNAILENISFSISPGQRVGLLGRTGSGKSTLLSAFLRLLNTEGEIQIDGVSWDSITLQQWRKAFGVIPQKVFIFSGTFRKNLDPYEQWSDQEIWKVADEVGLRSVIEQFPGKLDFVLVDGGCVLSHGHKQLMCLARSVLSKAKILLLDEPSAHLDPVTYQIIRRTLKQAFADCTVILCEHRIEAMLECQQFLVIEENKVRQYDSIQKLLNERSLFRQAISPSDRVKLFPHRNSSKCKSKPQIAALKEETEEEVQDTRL
Method in brief: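 NIH 3T3 mouse fibroblasts stably expressing F508del were incubated with corrector compounds at a range of concentrations for 16–24 h at 37° C, then loaded with a redistribution voltage-sensing dye. A single addition of forskolin under a chloride gradient (gluconate-substituted bath, pH 7.4) gave the membrane-potential response, read by FLIPR.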

CFTR [3] = biological target: T3, CFTR (Homo sapiens, UniProt P13569, DEL508-508); experiment: HBE assay: Ussing chamber assay of CFTR-mediated short-circuit currents in F508del/MF-HBE cells; format: cell-based; details: 20% human serum; for EC50: range of concentrations in combination with 1 μM Ivacaftor, 18-24 hours at 37° C.; for Emax: with 1 μM Ivacaftor, read-out: HBE Max Activity (%); for Emax / HBE Activity at 10 μM (%): 18-24 hours, compared to known Vertex corrector with 18 μM Tezacaftor and 1 μM Ivacaftor; for HBE Activity at 10 μM (%): single fixed concentration of 10 μM with 1 μM Ivacaftor
T3 construct: endogenous in cells; host or cells: primary human bronchial epithelial cells from CF subjects (F508del/MF)
T3 sequence (P13569 with tags, fused parts or gaps DEL508-508): as above
Experimental: 1. Ussing Chamber Assay of CFTR-Mediated Short-Circuit Currents
Ussing chamber experiments were performed using human bronchial epithelial (HBE) cells derived from CF subjects heterozygous for F508del and a minimal function CFTR mutation (F508del/MF-HBE) and cultured as previously described (Neuberger T, Burton B, Clark H, Van Goor F Methods Mol Biol 2011:741:39-54). After four days the apical media was removed, and the cells were grown at an air liquid interface for >14 days prior to use.
To isolate the CFTR-mediated short-circuit (Isc) current, F508del/MF-HBE grown on Costar® Snapwell™ cell culture inserts were mounted in an Ussing chamber and the transepithelial Isc was measured under voltage-clamp recording conditions (Vhold=0 mV) at 37° C. The basolateral solution contained (in mM) 145 NaCl, 0.83 K2HPO4, 3.3 KH2P04, 1.2 MgCl2, 1.2 CaCl2), 10 Glucose, 10 HEPES (pH adjusted to 7.4 with NaOH) and the apical solution contained (in mM) 145 NaGluconate, 1.2 MgCl2, 1.2 CaCl2), 10 glucose, 10 HEPES (pH adjusted to 7.4 with NaOH) and 30 μM amiloride to block the epithelial sodium channel. Forskolin (20 μM) was added to the apical surface to activate CFTR, followed by apical addition of a CFTR inhibitor cocktail consisting of BPO, GlyH-101, and CFTR inhibitor 172 (each at 20 μM final assay concentration) to specifically isolate CFTR currents. The CFTR-mediated Isc (ρA/cm^2) for each condition was determined from the peak forskolin response to the steady-state current following inhibition.
2. Identification of Corrector Compounds
The activity of the CFTR corrector compounds on the CFTR-mediated Isc was determined in Ussing chamber studies as described above. The F508del/MF-HBE cell cultures were either incubated with the corrector compounds at a range of concentrations in combination with 1 μM Ivacaftor or were incubated with the corrector compounds at a single fixed concentration of 10 μM in combination with 1 μM Ivacaftor for 18-24 hours at 37° C. and in the presence of 20% human serum. The concentration of corrector compounds with 1 μM Ivacaftor during the 18-24 hours incubations was kept constant throughout the Ussing chamber measurement of the CFTR-mediated Isc to ensure compounds were present throughout the entire experiment.

[4] = NIH 3T3 cells, F508del correction

T1 sequence (P13569 with tags, fused parts or gaps DEL508-508): as above

Cc1cccc(C)c1-c1cc2nc(n1)NS(=O)(=O)c1cccc(c1)C(=O)N[C@H](CC(C)C)CO2 [Compound 96, (11R)-6-(2,6-Dimethylphenyl)-11-isobutyl-2,2-dioxo-9-oxa-2λ^6-thia-3,5,12,19-tetrazatricyclo[12.3.1.14,8]nonadeca-1(18),4(19),5,7,14,16-hexaen-13-one]
EC50 (CFTR [1]): < 1000 nM | ring closure, yield after HPLC (from Cc1cccc(C)c1-c1cc(OC[C@H](N)CC(C)C)nc(NS(=O)(=O)c2cccc(C(=O)O)c2)n1, amide bond, 13-membered ring, HATU/TEA, DMF, 31.8 mM, 25.0 °C, 3.0 h): 57% | Ent. A Max Activity (CFTR [2]; Enteroid Assay A): +++ (+++ is >600%) | EC50 (CFTR [2]; Enteroid Assay A): < 1000 nM | EC50 (F508del; [4]): < 1000 nM

Cc1cccc(C)c1-c1cc2nc(n1)NS(=O)(=O)c1cccc(c1)C(=O)NC(C(CC(C)C)c1cccc(C(C)(C)C)c1)CO2 (stereo not shown) [Compound 209]
EC50 (CFTR [3]): < 1000 nM

Cc1cccc(CC2CCCCC2)c1-c1cc2nc(n1)NS(=O)(=O)c1cccc(c1)C(=O)N[C@H](CC(C)(C)C)CO2 [Compound 299]
EC50 (CFTR [3]): < 1000 nM | Emax (CFTR [3]): > 60%

Cc1cccc(C)c1-c1cc2nc(n1)NS(=O)(=O)c1cccc(c1)C(=O)N[C@H](CC1CCC1)CO2 [Compound 113, (11R)-11-(cyclobutylmethyl)-6-(2,6-dimethylphenyl)-9-oxa-2λ^6-thia-3,5,12,19-tetraazatricyclo[12.3.1.14,8]nonadeca-1(17),4,6,8(19),14(18),15-hexaene-2,2,13-trione]
ring closure, yield after HPLC (from Cc1cccc(C)c1-c1cc(OC[C@H](N)CC2CCC2)nc(NS(=O)(=O)c2cccc(C(=O)O)c2)n1, amide bond, 13-membered ring, HATU/DIEA, DMF, 65.5 mM, 25.0 °C, 1.0 h, 2 steps): 21% | Ent. A Max Activity (CFTR [2]; Enteroid Assay A): +++ (+++ is >600%) | EC50 (CFTR [2]; Enteroid Assay A): < 1000 nM | EC50 (F508del; [4]): < 1000 nM

Cc1cccc(C)c1-c1cc2nc(n1)NS(=O)(=O)c1cccc(c1)C(=O)N[C@H](CC1CC3(CCC3)C1)CO2 [Compound 49, (11R)-6-(2,6-Dimethylphenyl)-2,2-dioxo-11-(spiro[3.3]heptan-2-ylmethyl)-9-oxa-2λ^6-thia-3,5,12,19-tetrazatricyclo[12.3.1.14,8]nonadeca-1(18),4(19),5,7,14,16-hexaen-13-one]
HBE Activity at 10 μM (%) (CFTR [3]): +++ (+++ is >60%) | ring closure, yield after HPLC (from Cc1cccc(C)c1-c1cc(OC[C@H](N)CC2CC3(CCC3)C2)nc(NS(=O)(=O)c2cccc(C(=O)O)c2)n1, amide bond, 13-membered ring, CDMT/NMM, DMF, 32.4 mM, 25.0 °C, 1.5 h): 49%

Cc1cc2cc(c1)S(=O)(=O)Nc1nc(cc(-c3c(C)cccc3C)n1)OC[C@@H](CC1CCCCC1)NC2=O [Compound 74, (11R)-11-(Cyclohexylmethyl)-6-(2,6-dimethylphenyl)-16-methyl-2,2-dioxo-9-oxa-2λ^6-thia-3,5,12,19-tetrazatricyclo[12.3.1.14,8]nonadeca-1(18),4(19),5,7,14,16-hexaen-13-one]
ring closure, yield after HPLC (from Cc1cc(C(=O)O)cc(S(=O)(=O)Nc2nc(OC[C@H](N)CC3CCCCC3)cc(-c3c(C)cccc3C)n2)c1, amide bond, 13-membered ring, HATU/TEA, DMF, 39.0 mM, 0.42 h): 28% | Ent. A Max Activity (CFTR [2]; Enteroid Assay A): +++ (+++ is >600%) | EC50 (CFTR [2]; Enteroid Assay A): < 1000 nM | EC50 (F508del; [4]): < 1000 nM

Cc1cccc(C)c1-c1cc2nc(n1)NS(=O)(=O)c1cccc(c1)NC(=O)Nc1cccc(c1)O2 [Compound 1, 5-(2,6-Dimethylphenyl)-9,9-dioxo-2-oxa-9λ^6-thia-6,8,15,17,24-pentazatetracyclo[16.3.1.13,7.110,14]tetracosa-1(21),3,5,7(24),10(23),11,13,18(22),19-nonaen-16-one]
ring closure, yield after HPLC (from 3-amino-N-[4-(3-aminophenoxy)-6-(2,6-dimethylphenyl)pyrimidin-2-yl]benzenesulfonamide (Dihydrochloride salt), crosslinker bond, 15-membered ring, 1,3-dimethyl-tetrahydro-pyrimidin-2-one, 26.2 mM): 13% | Ent. A Max Activity (CFTR [2]; Enteroid Assay A): ++ (++ is 30-60%) | EC50 (CFTR [2]; Enteroid Assay A): 1000 to 3000 nM | EC50 (F508del; [4]): 1000 to 3000 nM

Cc1cccc(C)c1-c1cc2nc(n1)NS(=O)(=O)c1cccc(c1)C(=O)N[C@H](CCC(C)C)CO2 [Compound 46, (11R)-6-(2,6-dimethylphenyl)-11-(3-methylbutyl)-9-oxa-2λ^6-thia-3,5,12,19-tetraazatricyclo[12.3.1.14,8]nonadeca-1(17),4,6,8(19),14(18),15-hexaene-2,2,13-trione]
ring closure, yield after HPLC (from Cc1cccc(C)c1-c1cc(OC[C@H](N)CCC(C)C)nc(NS(=O)(=O)c2cccc(C(=O)O)c2)n1, amide bond, 13-membered ring, HATU/DIEA, DMF, 9.1 mM, 25.0 °C, 1.0 h, 3 steps): 3% | Ent. A Max Activity (CFTR [2]; Enteroid Assay A): +++ (+++ is >600%) | EC50 (CFTR [2]; Enteroid Assay A): < 1000 nM | EC50 (F508del; [4]): < 1000 nM

Cc1cccc(C)c1-c1cc2nc(n1)NS(=O)(=O)c1cccc(c1)C(=O)NC[C@@H](c1ccccc1)O2 [Compound 25, (10R)-6-(2,6-Dimethylphenyl)-2,2-dioxo-10-phenyl-9-oxa-2λ^6-thia-3,5,12,19-tetrazatricyclo[12.3.1.14,8]nonadeca-1(18),4(19),5,7,14,16-hexaen-13-one]
Ent. B Max Activity (CFTR [1]): ++ (++ is 30-60%) | EC50 (CFTR [1]): < 1000 nM | ring closure, yield after HPLC (from Cc1cccc(C)c1-c1cc(O[C@@H](CN)c2ccccc2)nc(NS(=O)(=O)c2cccc(C(=O)O)c2)n1, amide bond, 13-membered ring, HATU/DIEA, DMF, 25.9 mM, 25.0 °C, 1.0 h, 2 steps): 23% | Ent. A Max Activity (CFTR [2]; Enteroid Assay A): +++ (+++ is >600%) | EC50 (CFTR [2]; Enteroid Assay A): < 1000 nM

Cc1cccc(C)c1-c1cc2nc(n1)NS(=O)(=O)c1cccc(c1)C(=O)NC(C(CC(C)C)c1ccc(C(C)(C)C)cc1)CO2 (stereo not shown) [Compound 208]
HBE Activity at 10 μM (%) (CFTR [3]): +++ (+++ is >60%)

Cc1cccc(C)c1-c1cc2nc(n1)NS(=O)(=O)c1cccc(c1)C(=O)NC(C(CC(C)C)c1ccc(C(C)(C)C)cc1)CO2 (stereo not shown) [Compound 207]
HBE Activity at 10 μM (%) (CFTR [3]): + (+ is <30%)

Cc1cccc(C)c1-c1cc2nc(n1)NS(=O)(=O)c1cccc(c1)C(=O)N[C@@H](CC(C)(C)C)CO2 [Compound 121]
HBE Activity at 10 μM (%) (CFTR [3]): + (+ is <30%)

Cc1cccc(C)c1-c1cc2nc(n1)NS(=O)(=O)c1cccc(c1)C(=O)NC(C(CC(C)C)c1cccc(C(C)(C)C)c1)CO2 (stereo not shown) [Compound 211]
EC50 (CFTR [3]): < 1000 nM | Emax (CFTR [3]): > 60%

Cc1cccc(C)c1-c1cc2nc(n1)NS(=O)(=O)c1cccc(c1)C(=O)NC(C(CC(C)C)c1ccc(C(C)(C)C)cc1)CO2 (stereo not shown) [Compound 210]
EC50 (CFTR [3]): < 1000 nM | Emax (CFTR [3]): 30 to 60%

Cc1cccc(C)c1-c1cc2nc(n1)NS(=O)(=O)c1cccc(c1C)C(=O)N[C@H](CC1CCCCC1)CO2 [Compound 75, (11R)-11-(Cyclohexylmethyl)-6-(2,6-dimethylphenyl)-18-methyl-9-oxa-2λ^6-thia-3,5,12,19-tetraazatricyclo[12.3.1.14,8]nonadeca-1(17),4(19),5,7,14(18),15-hexaene-2,2,13-trione]
ring closure, yield after HPLC (from Cc1cccc(C)c1-c1cc(OC[C@H](N)CC2CCCCC2)nc(NS(=O)(=O)c2cccc(C(=O)O)c2C)n1, amide bond, 13-membered ring, HATU/TEA, DMF, 40.1 mM, 0.42 h): 8% | Ent. A Max Activity (CFTR [2]; Table 8): +++ (+++ is >60%) | EC50 (CFTR [2]; Table 8): < 1000 nM | Emax (F508del; NIH3T3, Table 8, read-out: 3T3 Max Activity): > 60% | EC50 (F508del; Table 8): < 1000 nM

From US20230382924A1, “MODULATORS OF CYSTIC FIBROSIS TRANSMEMBRANE CONDUCTANCE REGULATOR” (VERTEX PHARMACEUTICALS INCORPORATED, priority 2020, published 2023)
